# According to patent US20040010036A1, “N,N, -Substituted s-Aryl-Isothioureas, N,N,N, -Substituted s-Aryl-Isothioureas and combinatorial libraries thereof” (priority 2002, published 2004):
# Tested on: Streptococcus pyogenes (ATCC# 97-03 14289)
# Assay: Anti-microbial screen (percent inhibition of growth, OD 570 nm)
# Type: cell-based
# Details: Spy4H: Streptococcus pyogenes, read at 4 hours, OD 570 nm; Conc 0.1776 mg ml
# Description: Streptococcus pyogenes (ATCC# 97-03 14289) was grown in Todd Hewitt Broth (THB) (Difco Laboratories #0492-17-6) overnight until reaching an optical density of (OD=0.636@570 nm) by reading 0.1 ml in a 96 well microtiter plate in a Molecular Devices Thermomax. This preparation was kept frozen as stocks in 30% v/v glycerol in 1.5 ml aliquots at […] until use. Prior to experiments, 6 ml aliquots were thawed and diluted into 50 ml 2×THB. 60 ul of this dilution was added to 92 wells of microtiter plate. To three wells THB (200 ul) was added to serve as a blank and a sterility control. Test compounds in DMSO and appropriate concentrations of DMSO were added to Growth/Solvent Controls at 0 time. Plates were read at 0 time at 570 nm in the Molecular Devices plate reader to obtain compounds correction factors for insoluble or colored compounds. Plates were read again at 4 hours.
# Percent inhibition is calculated with the following formula:
# Color correct=O.D. 0 hr - Blank 0 hr)-(Solvent Control Ohr - Blank 0 hr) [formula]
row,Compound,inhibition of growth at 177.6 µg/mL [%]
1,Cc1ccc(S/C(=N/c2ccc(Cl)c(C(F)(F)F)c2)N(Cc2ccc(O)cc2)CC(C)C)cc1 [Cmpd 273],64.6
2,Cc1ccc(S/C(=N/c2ccc(F)c(F)c2)N(Cc2ccc(O)cc2)CC(C)C)cc1 [Cmpd 276],62.1
3,Cc1ccc(S/C(=N\Cc2ccc(F)cc2)N(CCc2ccc(Cl)cc2)Cc2cccc(O)c2)c(C)c1 [Cmpd 284],64
4,Cc1ccc(S/C(=N\c2ccc(C(F)(F)F)cc2)N(CCc2ccc(Cl)cc2)Cc2cccc(O)c2)c(C)c1 [Cmpd 287],97.7
5,COc1cccc(CN(Cc2cccc(O)c2)/C(=N/c2ccc(Cl)c(Cl)c2)Sc2cccc(OC)c2)c1 [Cmpd 328],98.9
6,COc1cccc(CN(Cc2cccc(O)c2)/C(=N/c2cc(Cl)cc(Cl)c2)Sc2cccc(OC)c2)c1 [Cmpd 333],67.2
7,COc1cccc(CN(Cc2cccc(O)c2)/C(=N\c2ccc(Cl)c(C(F)(F)F)c2)Sc2cccc(OC)c2)c1 [Cmpd 353],59.1
8,COc1cccc(S/C(=N\Cc2ccc(F)cc2)N(CCc2ccc(Cl)cc2)Cc2ccc(O)cc2)c1 [Cmpd 364],66.9
9,COc1cccc(S/C(=N\c2ccc(C(F)(F)F)cc2)N(CCc2ccc(Cl)cc2)Cc2ccc(O)cc2)c1 [Cmpd 367],70.5
10,COc1cccc(S/C(=N\c2cc(Cl)cc(Cl)c2)N(CCc2ccc(Cl)cc2)Cc2ccc(O)cc2)c1 [Cmpd 373],75
11,Cc1ccc(CN(Cc2cccc(O)c2)/C(=N/c2ccc(C(F)(F)F)cc2)Sc2ccc(C)cc2)cc1 [Cmpd 407],71.7
12,Cc1ccc(CN(Cc2cccc(O)c2)/C(=N/c2cc(Cl)cc(Cl)c2)Sc2ccc(C)cc2)cc1 [Cmpd 413],57.6
13,Cc1ccc(CN(Cc2cccc(O)c2)/C(=N/c2ccccc2[N+](=O)[O-])Sc2ccc(C)cc2)cc1 [Cmpd 426],67.4

# Same assay, conditions: Streptococcus pyogenes; Assay Spy4H; Conc 0.1776 mg ml; plates read at 570 nm at 0 time and at 4 hours
row,Compound,inhibition of growth at 177.6 µg/mL [%]
1,Cc1cccc(C/N=C(\Sc2ccc(C)cc2C)N(CCc2ccc(Cl)cc2)Cc2cccc(O)c2)c1 [Cmpd 282],49.8
2,Cc1ccc(S/C(=N\c2ccc(F)c(Cl)c2)N(CCc2ccc(Cl)cc2)Cc2cccc(O)c2)c(C)c1 [Cmpd 294],56.6
3,Cc1ccc(S/C(=N/c2ccc(Cl)c(C(F)(F)F)c2)N(CCc2ccc(Cl)cc2)Cc2cccc(O)c2)c(C)c1 [Cmpd 313],50.4
4,COc1cccc(CN(Cc2cccc(O)c2)/C(=N/c2ccc(C(F)(F)F)cc2)Sc2cccc(OC)c2)c1 [Cmpd 327],56.7
5,COc1cccc(CN(Cc2cccc(O)c2)/C(=N/c2ccc(F)c(Cl)c2)Sc2cccc(OC)c2)c1 [Cmpd 334],50.6
6,COc1cccc(CN(Cc2cccc(O)c2)/C(=N/c2ccc(Cl)c([N+](=O)[O-])c2)Sc2cccc(OC)c2)c1 [Cmpd 343],52.7
7,COc1cccc(S/C(=N\Cc2cccc(C)c2)N(CCc2ccc(Cl)cc2)Cc2ccc(O)cc2)c1 [Cmpd 362],50.9
8,COc1cccc(S/C(=N\c2cccc(F)c2)N(CCc2ccc(Cl)cc2)Cc2ccc(O)cc2)c1 [Cmpd 363],50.3
9,COc1cccc(S/C(=N\c2cccc(C(F)(F)F)c2)N(CCc2ccc(Cl)cc2)Cc2ccc(O)cc2)c1 [Cmpd 366],49.1
10,COc1cccc(S/C(=N\c2ccc(Cl)c([N+](=O)[O-])c2)N(CCc2ccc(Cl)cc2)Cc2ccc(O)cc2)c1 [Cmpd 383],56.7
11,COc1cccc(S/C(=N/c2ccc(Cl)c(C(F)(F)F)c2)N(CCc2ccc(Cl)cc2)Cc2ccc(O)cc2)c1 [Cmpd 393],54.5
12,COc1cccc(S/C(=N\c2ccc(F)c(F)c2)N(CCc2ccc(Cl)cc2)Cc2ccc(O)cc2)c1 [Cmpd 396],54.2
13,Cc1ccc(CN(Cc2cccc(O)c2)/C(=N/c2ccc(F)c(Cl)c2)Sc2ccc(C)cc2)cc1 [Cmpd 414],49.1
14,Cc1ccc(CN(Cc2cccc(O)c2)/C(=N/c2ccc(Cl)c([N+](=O)[O-])c2)Sc2ccc(C)cc2)cc1 [Cmpd 423],57.3
